Laboratory results taken from patent US6762188B1, “Pharmaceutically active benzoquinazoline compounds” (SmithKline Beecham Corporation, priority 1990, dated 2004).
Read-outs that look alike come from different tables or passages of the source.

What was measured:
[1] = molecular target: T1, Mammalian Thymidylate Synthase (Homo sapiens, UniProt P04818); assay: Thymidylate synthase inhibition, tritium release assay; format: biochemical
T1 construct: made in house; host or cells: Escherichia coli

[2] = system: SW480 human colon adenocarcinoma; assay: Tumor cell culture cytotoxicity (MTT dye reduction), SW480; details: Homo sapiens
Experimental: (§1) SW480 and WiDr colon adenocarcinomas, MCF-7 breast adenocarcinoma, A427 lung carcinoma and MOLT-4 T-cell leukemia were used for the primary screening of compounds. […] MCF-7, A427 and SW480 were grown in the above medium further supplemented with sodium pyruvate.
(§2) Cells are seeded into 96-well plates using a Perkin-Elmer Pro/pette. SW480 and A427 were seeded at 8,000 cells per well, MCF-7 at 10,000, Widr at 7500, and MOLT-4 at 12,500 cells per well, all in 150 µl of medium. Prior to the addition of drugs, cultures were incubated for 24 hrs at 37°. Compounds were added at 2×concentration in 150 l of medium and each concentration was assayed in triplicate. If DMSO or ethanol were used to solubilize compounds, appropriate controls were run if the concentration exceeded 0.01%. Cultures were incubated for 72 hours (96 hours for SW480 and MCF-7) in a 37° humidified incubator at 5% CO2. Inhibition of cell growth was measured using the MTT dye reduction assay.
(§3) Cell dilutions for a standard curve were prepared from a 72 hour log-phase culture. Serial dilutions were seeded in triplicate in 96-well plates and incubated at 37 degrees for one hour. MTT (3-(4,5-dimethylthiazol-2-yl)-2,5-diphenyltetrazolium bromide) was dissolved in PBS at 5 mg/ml and sonicated for 30 seconds. Using the Perkin Elmer Pro/pette, 200 μl of medium was removed and 100 μl of MTT added to the wells of the standard curve and test plates. Suspension cultures were spun for 5 min at 1000 rpm before removing medium from the wells. Plates were incubated for 1 hour at 370 on a platform shaker. Following this incubation 100 ml of medium was removed from the wells and 100 μl of DMSO added to each well. The plates were sonicated for approximately 10 seconds to solubilize the precipitated formazan dye. The absorbance of each well was measured using a Titertek Multiscan MC microtiter plate reader at 570 nm with a reference wavelength of 750 nm. Data was collected using a Mariachi Seed-2 and stored and analyzed using an IBM-AT and Lotus 1-2-3 software.

[3] = Cell culture cytotoxicity, D98; format: cell-based; details: human, D98 bone marrow cell line; Table B, fully aromatic 3-amino derivatives; read-out: Tumor Cell Culture Cytotoxicity IC50 Other (D98)
Experimental: as §2, §3

[4] = Cell culture cytotoxicity, L cells; format: cell-based; details: mouse, L fibroblast cell line; Table B, fully aromatic 3-amino derivatives; read-out: Tumor Cell Culture Cytotoxicity IC50 Other (L)
Experimental: as §2, §3

[5] = system: MCF-7 human breast adenocarcinoma; assay: Tumor cell culture cytotoxicity (MTT dye reduction), MCF-7; format: cell-based
Experimental: as §1, §2, §3

[6] = SW480, read-out: Tumor Cell Culture Cytotoxicity IC50 SW480, Table D, 5,6-dihydro 3-methyl derivatives
[7] = SW480, read-out: Tumor Cell Culture Cytotoxicity IC50 SW480, Table B, fully aromatic 3-amino derivatives
[8] = MCF7, Table F, fully aromatic p-aminobenzoylglutamates, read-out: Cell Culture Cytotoxicity CCCT MCF-7
[9] = SW480, read-out: Cell Culture Cytotoxicity CCCT SW-480, Table F, fully aromatic p-aminobenzoylglutamates

T1 sequence (P04818 whole entry): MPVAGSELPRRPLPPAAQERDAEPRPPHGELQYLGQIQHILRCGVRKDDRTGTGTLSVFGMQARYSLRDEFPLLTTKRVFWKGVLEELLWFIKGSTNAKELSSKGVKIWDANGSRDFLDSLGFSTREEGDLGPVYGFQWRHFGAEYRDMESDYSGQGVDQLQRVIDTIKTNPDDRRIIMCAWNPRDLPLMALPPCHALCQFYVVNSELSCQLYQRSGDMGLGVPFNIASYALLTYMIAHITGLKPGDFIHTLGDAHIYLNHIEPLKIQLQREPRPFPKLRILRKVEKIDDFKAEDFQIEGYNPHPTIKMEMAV

Row | melting point [°C] | IC50 [1] [µM] | Compound | IC50 [5, 8] [µM] | IC50 [2, 9] [µM] | other results
1 | > 240 |  | Cc1nc2c(c(=O)[nH]1)-c1cc(S(=O)(=O)Nc3ccc([N+](=O)[O-])cc3)ccc1CC2 [1,2,5,6-Tetrahydro-3-methyl-4′-nitro-1-oxobenzo(f)quinazoline-9-sulfonanilide] |  |  | IC50 [2, 6]: 30 µM
2 |  | 1 to 300 | Nc1nc2ccc3c(Br)cccc3c2c(=O)[nH]1 [3-Amino-7-bromobenzo(f)quinazolin-1(2H)-one] |  |  | IC50 at 72 h [3]: 56 µM; IC50 [2, 7]: 10 µM; IC50 at 72 h [4]: 28 µM
3 |  | 1 to 300 | Nc1nc2ccc3c(Cl)cccc3c2c(=O)[nH]1 [3-Amino-7-chlorobenzo(f)quinazolin-1(2H)-one] |  |  | IC50 at 72 h [3]: 60 µM; IC50 [2, 7]: 25 µM; IC50 at 72 h [4]: 46 µM
4 |  | 1 to 300 | Cc1cccc2c1ccc1nc(N)[nH]c(=O)c12 [3-Amino-7-methylbenzo(f)quinazolin-1(2H)-one] |  |  | IC50 at 72 h [3]: 53 µM; IC50 [2, 7]: 35 µM; IC50 at 72 h [4]: 32 µM
5 |  | 1 to 300 | Nc1nc2ccc3c([N+](=O)[O-])c(F)ccc3c2c(=O)[nH]1 [3-Amino-8-fluoro-7-nitrobenzo(f)quinazolin-1(2H)-one] |  |  | IC50 at 72 h [3]: 20 µM; IC50 [2, 7]: 30 µM; IC50 at 72 h [4]: 14 µM
6 | 190 |  | Cc1nc2c(c(=O)[nH]1)-c1cc(S(=O)(=O)Nc3ccc(C(N)=O)cc3)ccc1CC2 [4-((1,2,5,6-Tetrahydro-3-methyl-1-oxobenzo(f)quinazolin-9-yl)sulfonamido)benzamide] |  |  | IC50 [2, 6]: 80 µM
7 | > 240 |  | CC(=O)c1ccc(NS(=O)(=O)c2ccc3c(c2)-c2c(nc(C)[nH]c2=O)CC3)cc1 [4′-Acetyl-1,2,5,6-tetrahydro-3-methyl-1-oxobenzo(f)quinazoline-9-sulfonanilide] |  |  | IC50 [2, 6]: 8 µM
8 | 213 to 214 |  | CCCCCCCCCCCCOC(=O)CCC(=O)c1ccc(NCc2ccc3ccc4nc(C)[nH]c(=O)c4c3c2)cc1 [Dodecyl 4-(4-(((1,2-dihydro-3-methyl-1-oxobenzo[f]quinazolin-9-yl)methyl)amino)phenyl)-4-oxobutyrate] |  |  | IC50 ([2]; SW480, read-out: Tumor Cell Culture Cytotoxicity IC50 SW480, Table E, fully aromatic 3-methyl derivatives): 0.4 µM
9 | > 250 |  | CCN(CC)S(=O)(=O)c1ccc2ccc3nc(N)[nH]c(=O)c3c2c1 [Example 9-SO2NEt2, 3-Amino-N,N-diethyl-1,2-dihydro-1-oxobenzo[f]quinazoline-9-sulfonamide] |  |  | IC50 [2, 7]: 15 µM; IC50 ([2]; SW480, read-out: Tumor Cell Culture Cytotoxicity IC50 SW480, Table C, 5,6-dihydro 3-amino derivatives): 30 µM
10 | > 235 |  | CC(=O)c1ccc(NCc2ccc3ccc4nc(C)[nH]c(=O)c4c3c2)cc1 [Example 35, 9-((4-Acetylanilino)methyl)-3-methylbenzo[f]quinazolin-1(2H)-one] |  |  | 
11 | > 230 |  | Nc1nc2ccc3ccc(CNc4ccc(F)cc4)cc3c2c(=O)[nH]1 [Example 38, 3-Amino-9-((4-fluoroanilino)methyl)benzo[f]quinazolin-1(2H)-one] |  |  | 
12 | 238 to 242 |  | Nc1nc2ccc3cc(S(=O)(=O)Nc4ccc(C(=O)N[C@@H](CCC(=O)O)C(=O)O)cc4)c(Br)cc3c2c(=O)[nH]1 [N-(4-((3-Amino-9-bromo-1,2-dihydro-1-oxobenzo(f)quinazolin-8-yl)sulfonamido)benzoyl)-L-glutamic acid] | > 50 | > 50 | 

Second part, the molecule before the results:

Row | Compound | melting point [°C] | IC50 [1] [µM] | IC50 [5, 8] [µM] | IC50 [2, 9] [µM] | other results
13 | Cc1nc2c(c(=O)[nH]1)-c1cc(S(N)(=O)=O)ccc1CC2 [1,2,5,6-Tetrahydro-3-methyl-1-oxobenzo(f)quinazoline-9-sulfonamide] | > 240 | 1 to 300 |  |  | 
14 | CC(=O)c1ccc(NCc2ccc3ccc4nc(N)[nH]c(=O)c4c3c2)cc1 [3-Amino-9-((4-acetylanilino)methyl)benzo(f)quinazolin-1(2H)-one] |  | < 1 |  |  | IC50 ([5]; MCF7, Table B, fully aromatic 3-amino derivatives, read-out: Tumor Cell Culture Cytotoxicity IC50 Other (MCF-7)): 0.03 µM; IC50 [2, 7]: 0.045 µM
15 | Cc1nc2ccc3ccc(CNc4ccc5c(c4)CN([C@@H](CCC(=O)O)C(=O)O)C5=O)cc3c2c(=O)[nH]1 [(S)-2-(5-(((1,2-Dihydro-3-methyl-1-oxobenzo(f)quinazolin-9-yl)methyl)amino)-1-oxo-2-isoindolinyl)glutaric acid] |  |  | 0.0002 | 0.0008 | 
16 | CCN(CC)S(=O)(=O)c1ccc2c(c1)-c1c(nc(C)[nH]c1=O)CC2 [N,N-Diethyl-1,2,5,6-tetrahydro-3-methyl-1-oxobenzo(f)quinazoline-9-sulfonamide] | 249 to 251 | 1 to 300 |  |  | 
17 | Cc1nc2ccc3c(S(=O)(=O)Nc4ccc(C(=O)N[C@@H](CCC(=O)O)C(=O)O)cc4)cccc3c2c(=O)[nH]1 [N-(4-((1,2,-Dihydro-3-methyl-1-oxobenzo(f)quinazolin-7-yl)sulfonamido)benzoyl)-L-glutamic acid] |  |  | 50 |  | 
18 | Cc1nc2ccc3ccc(COc4ccc(C(=O)N[C@@H](CCC(=O)O)C(=O)O)cc4)cc3c2c(=O)[nH]1 [N-(4-((1,2-Dihydro-3-methyl-1-oxobenzo(f)quinazolin-9-yl)methoxy)benzoyl)-L-glutamic acid] |  |  | 7 | 70 | 
19 | Cc1nc2ccc3ccc(CN(C)c4ccc(C(=O)N[C@@H](CCC(=O)O)C(=O)O)cc4)cc3c2c(=O)[nH]1 [N-(4-((1,2-Dihydro-3-methyl-1-oxobenzo(f)quinazolin-9-yl)methyl)methylamino)benzoyl)-L-glutamic acid] |  |  | 0.018 | 1.5 | 
20 | Nc1nc2c(c(=O)[nH]1)-c1cc(S(=O)(=O)Nc3ccc(C(=O)N[C@@H](CCC(=O)O)C(=O)O)cc3)ccc1CC2 [N-(4-((3-Amino-1,2,5,6-tetrahydro-1-oxobenzo(f)quinazolin-9-yl)-sulfonamido)benzoyl)-L-glutamic acid] |  |  |  |  | IC50 ([5]; MCF7, Table G, dihydrobenzoquinazoline p-aminobenzoylglutamates, read-out: Cell Culture Cytotoxicity CCCT MCF-7): 0.65 µM; IC50 ([2]; SW480, read-out: Cell Culture Cytotoxicity CCCT SW-480, Table G, dihydrobenzoquinazoline p-aminobenzoylglutamates): 7.9 µM
21 | Cc1nc2ccc3ccc(CNc4ccc(C(=O)N[C@@H](CCC(=O)O)C(=O)O)c(F)c4)cc3c2c(=O)[nH]1 [N-(4-(((1,2-Dihydro-3-methyl-1-oxobenzo(f)quinazolin-9-yl)methyl)amino)-2-fluorobenzoyl)-L-glutamic acid] |  |  | 0.0007 | 0.02 | 
22 | Cc1nc2ccc3ccc(CNc4ccc(C(=O)N[C@@H](CCC(=O)O)C(=O)O)cc4)cc3c2c(=O)[nH]1 [N-(4-(((1,2-Dihydro-3-methyl-1-oxobenzo(f)quinazolin-9-yl)methyl)amino)benzoyl)-L-glutamic acid] |  |  | 0.0075 | 0.35 | 
23 | Nc1nc2ccc3ccc(CNc4ccc(C(=O)N[C@@H](CCC(=O)O)C(=O)O)cc4)cc3c2c(=O)[nH]1 [N-(4-(((3-Amino-1,2-dihydro-1-oxobenzo(f)quinazolin-9-yl)methyl)amino)benzoyl)-L-glutamic acid] |  |  | 0.025 | 0.6 | 
